The target in data set [1] is T1, CYP1A2 (Homo sapiens, UniProt P05177).
T1 construct: purchased BD Gentest (Woburn, MA, USA); host or cells: baculovirus expression system
T1 sequence (P05177 1-516): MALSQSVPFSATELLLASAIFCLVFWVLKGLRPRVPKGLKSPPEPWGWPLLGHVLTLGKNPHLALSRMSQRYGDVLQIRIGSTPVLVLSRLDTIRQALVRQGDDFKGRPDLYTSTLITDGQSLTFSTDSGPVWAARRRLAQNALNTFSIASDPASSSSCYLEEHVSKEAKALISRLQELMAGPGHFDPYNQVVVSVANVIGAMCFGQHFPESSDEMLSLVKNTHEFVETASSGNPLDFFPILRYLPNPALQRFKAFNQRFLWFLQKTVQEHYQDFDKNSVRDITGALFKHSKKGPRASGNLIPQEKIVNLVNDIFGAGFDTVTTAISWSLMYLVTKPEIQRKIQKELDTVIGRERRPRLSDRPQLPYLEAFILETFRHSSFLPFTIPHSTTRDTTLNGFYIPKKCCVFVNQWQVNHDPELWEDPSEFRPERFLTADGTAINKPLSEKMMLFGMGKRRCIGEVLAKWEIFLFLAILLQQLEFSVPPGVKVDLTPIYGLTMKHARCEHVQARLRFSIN
In words: Reversible inhibition of recombinant CYP1A2. It counts as in vitro ADME. Here is the method: (§1) The assay for reversible inhibition was conducted in a total volume of 200 μL in 96-well microplates. The assay conditions, enzyme and substrate concentrations were similar as reported earlier ([Crespi et al., 1997]; [Manda et al., 2013]). Test samples or positive controls were serially diluted in a solution (100 μL) of cofactors mix, control protein (0.05 mg of protein/mL), and G-6-PDH to achieve six concentrations (100-0.4 μM or μg/mL). Initial readings were taken to record any inherent fluorescence and the plates were incubated at 37°C for 10 min. Reaction was initiated by the addition of enzyme substrate mixture (100 μL) followed by incubation for 15, 30, or 45 min. The reaction was terminated by the addition of 75 μL of ice cold acetonitrile/0.5 M Tris base (80:20). Fluorescence was measured on Spectramax M5 plate reader (Molecular Devices, Sunnyvale, CA, USA) at specified excitation and emission wavelengths for each substrate. IC50 values (co-incubation assay) were obtained from concentration-response curves generated by plotting concentration versus % inhibition.

A further data set has as its target T2, CYP2C9 (Homo sapiens, UniProt P11712).
T2 construct: purchased BD Gentest (Woburn, MA, USA); host or cells: baculovirus expression system
In words: Reversible inhibition (co-incubation assay) of recombinant CYP2C9. Type of data set: in vitro ADME. As for the experimental part: as §1

Data set [2] addresses T1, CYP1A2. Nature of the data set: Prediction of in vivo HDI from in vitro results, CYP1A2. The following applies: for Likelihood of causing HDI: CYP1A2, IC50 compared with estimated GIT and plasma concentrations; for Plasma concentration: Table 3, CYP1A2 section. Here is the method:
All assumptions to predict the HDI potential of KF methanolic extract and its constituents were according to previously published report ([Awortwe et al., 2014]). The % yield was calculated from the amounts extracted from the KF roots ([Ali and Khan, 2011]). The human GIT volume is 250 mL and plasma volume is about 3 L. The commonly used maximum dose of KF extract capsules is 560 mg per day ([Abdul Kadir et al., 2012]) and accordingly we estimated the concentration per dose, GIT, and plasma concentrations of extract and its constituents. We then compared the in vitro IC50 values obtained from recombinant CYPs with estimated GIT and plasma concentrations. If the IC50 values were lower than the GIT or plasma concentration, then the test compound or extract is likely to cause HDI in vivo.

The next data set deals with T3, PXR (Homo sapiens, UniProt O75469).
T3 construct: expressed in transfected cells; host or cells: HepG2 cells, transient electroporation with pSG5-PXR and the CYP3A4-PXRE-LUC reporter
T3 sequence (O75469 1-434): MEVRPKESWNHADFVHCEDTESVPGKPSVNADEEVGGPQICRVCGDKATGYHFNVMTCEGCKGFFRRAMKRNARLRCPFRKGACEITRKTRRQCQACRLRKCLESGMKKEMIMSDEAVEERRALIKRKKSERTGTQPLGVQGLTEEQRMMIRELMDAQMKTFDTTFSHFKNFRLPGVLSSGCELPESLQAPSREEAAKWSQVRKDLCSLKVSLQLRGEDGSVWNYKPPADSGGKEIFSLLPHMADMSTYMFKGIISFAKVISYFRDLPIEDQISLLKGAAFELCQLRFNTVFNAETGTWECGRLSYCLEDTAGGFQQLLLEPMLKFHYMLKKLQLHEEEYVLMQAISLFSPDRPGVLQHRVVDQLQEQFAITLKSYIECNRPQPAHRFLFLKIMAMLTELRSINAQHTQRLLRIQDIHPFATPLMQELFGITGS
Nature of the data set: PXR activation, luciferase reporter gene assay in HepG2 cells. It counts as cell-based. As for the experimental part:
The modulation of PXR activity by test samples was determined in HepG2 cells transiently transfected with pSG5-PXR (25 μg) and PCR5 plasmid DNA (25 μg) by electroporation at 180 V, 1 pulse for 70 msec. The cells were plated in 96-well plates at a density of 50,000 cells per well. After 24 h, test samples and drug controls were added at various concentrations. After additional 24 hour incubation, the media was aspirated and 40 μL of luciferase reagent (Promega Corporation, Madison, WI, USA) was added to each well and luminescence was measured on Spectramax M5 plate reader (Molecular Devices, Sunnyvale, CA, USA). The fold induction in luciferase activity in the treated cells was calculated in comparison to vehicle treated cells.
A general note: In a reporter assay the amount or activity of a reporter protein is the signal.

The source of these data is publication PMC4126480, “Evaluation of drug interaction potential of Labisia pumila (Kacip Fatimah) and its constituents” (Frontiers in Pharmacology, 2014).

Structures are written as SMILES. pIC50: −log10 of the molar value. Values joined by “and” are separate entries in the source; they are usually repeats but may differ in a detail not shown here. Identical values can stand only once.

T2 sequence (P11712 whole entry): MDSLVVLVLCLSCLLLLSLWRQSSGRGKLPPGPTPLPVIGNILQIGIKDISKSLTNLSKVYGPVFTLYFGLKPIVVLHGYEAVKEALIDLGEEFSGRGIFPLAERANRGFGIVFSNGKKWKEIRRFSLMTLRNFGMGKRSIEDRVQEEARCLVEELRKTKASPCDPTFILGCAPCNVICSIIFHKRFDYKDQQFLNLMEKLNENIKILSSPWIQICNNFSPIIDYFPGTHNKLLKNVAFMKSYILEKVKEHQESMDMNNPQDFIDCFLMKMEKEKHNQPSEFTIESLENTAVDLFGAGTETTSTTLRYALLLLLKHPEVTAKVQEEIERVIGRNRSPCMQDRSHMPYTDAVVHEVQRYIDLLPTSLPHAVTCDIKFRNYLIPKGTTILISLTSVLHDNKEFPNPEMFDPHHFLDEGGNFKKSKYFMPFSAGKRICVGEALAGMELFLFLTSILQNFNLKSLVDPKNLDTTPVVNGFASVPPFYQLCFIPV

Take `CCCC/C=C\CCCCCCCCCc1cc(O)cc(OC)c1` [Belamcandol B]: the pIC50 on CYP1A2 [1] is 3.66. The pIC50 at CYP2C9 was 4.16. At CYP1A2 [2], the “Likelihood of causing HDI” value is “unlikely” and the Plasma concentration is 310 ng/mL.

For the compound `CCCC/C=C\CCCCCCCCCc1cc(O)cc(O)c1` [5-[10(Z)-pentadecenyl]resorcinol], the pIC50 on CYP1A2 [1] was 4.04; at CYP2C9, 4.92. Moreover, on CYP1A2 [2], the “Likelihood of causing HDI” value was “Remote”. Further, the Plasma concentration on CYP1A2 [2] is 774 ng/mL.

For `CCCC/C=C\CCCCCCCCCc1cc(O)cc2oc3cc(OC)c(O)c(CCCCCCCCC/C=C\CCCC)c3c12` [Fatimahol], on CYP1A2 [1], the pIC50 was 4.32. The pIC50 on CYP2C9 was 4.77. In addition, the “Induction of PXR activity” value on PXR (HepG2, 30 μM (highest tested concentration), vs vehicle) is listed as 1.8 fold. Further, the “Induction of PXR activity at lower concentration” value on PXR (HepG2, below 30 μM) is “not significant”. On CYP1A2 [2], the “Likelihood of causing HDI” value is on record as “unlikely” and the Plasma concentration was 16 ng/mL.

Regarding `CCCC/C=C\CCCCCCCCCC1=C(c2c(O)cc(O)cc2CCCCCCCCC/C=C\CCCC)C(=O)C=C(OC)C1=O` [Demethylbelamcandaquinone B], at CYP1A2 [1], the pIC50 is 4.12. The negative-log IC50 (pIC50) on CYP2C9 was 4.80 and 4.82. Moreover, on CYP1A2 [2], the “Likelihood of causing HDI” value was “unlikely” and the Plasma concentration was 722 ng/mL.

As usually defined, the pIC50 is the IC50 on a negative log10 scale, so that one unit is a factor of ten.
